The results in this text go back to patent US9708286B2, “Ingenol-3-acylates III and ingenol-3-carbamates” (LEO Laboratories Limited, priority 2010, dated 2017).

Where only a bound is given, the exact number is not on record here.

Usually EC50 stands for the concentration giving half of the maximal effect.

Type in all cases: cell-based
In assay [1] the test system is Primary human epidermal keratinocytes, HeKa. Description: HeKa cytokine release (IL-8). Particulars: Homo sapiens, HEKa, 6 h, read-out: HeKa cytokine release (IL-8) Rel EC50 range. The essentials:
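Seeded cells exposed to compound dilutions for 6 h at 37° C; IL-8 in supernatant quantified by MSD sandwich electrochemiluminescence immunoassay. Effects normalized to positive control (1.5×10^−7 M PEP0005), four-parameter sigmoidal fit; Rel EC50 is concentration midway between fitted top and bottom.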

In another assay the test system is HeLa cells. Description: Necrosis assay. The conditions noted are these: Homo sapiens, HeLa, 0.5 h, read-out: HeLa necrosis EC50 range. The essentials: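 HeLa cells treated with compound at 10 μM to 400 μM (final) for 30 min at 37° C., viability then measured by PrestoBlue fluorescence (ex 535/em 630 nm). Normalized to 1% DMSO and 400 μM ingenol mebutate controls; AbsEC50 from four-parameter sigmoidal fit.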

Assay [2] concerns PMN's (polymorphonuclear leukocytes). Description: Neutrophil oxidative burst. The conditions noted are these: Leukocyte, 40 min, read-out: Neutrophil oxidative burst Rel EC50 range, PMN from buffy coats, 40 min at RT, hydroethidine fluorescence; normalized to 5×10^−7 M PEP0005. The essentials:
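Human buffy-coat neutrophils (2.5×10^5/well) in HBSS with 0.1% BSA, 5 mM glucose treated with compound premixed with 10 μM hydroethidine for 40 min at RT; fluorescence read at 485/579 nm. Normalized to 5×10^−7 M PEP0005; Rel EC50 is midway between fitted top and bottom, Abs EC50 gives 50% of PEP0005 maximum.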

Take `CC1=C[C@]23C(=O)[C@@H](C=C(CO)[C@@H](O)[C@]2(O)[C@H]1OC(=O)c1c(-c2ccccc2)c2ccccc2n1C)[C@H]1[C@@H](C[C@H]3C)C1(C)C` [Compound 574, Ingenol 3-(1-methyl-3-phenyl-indole-2-carboxylate)]: the results for the EC50 (in assay [1]; in the assay with HeLa cells; in assay [2]) were under 20 nM, under 150000 nM and under 20 nM, respectively.
For `CC1=C[C@]23C(=O)[C@@H](C=C(CO)[C@@H](O)[C@]2(O)[C@H]1OC(=O)c1c(C)cc(C)n1C)[C@H]1[C@@H](C[C@H]3C)C1(C)C` [Compound 542, Ingenol 3-(1,3,5-trimethylpyrrole-2-carboxylate)], the EC50 is under 20 nM in assay [1], under 150000 nM in the assay with HeLa cells and under 20 nM in assay [2].
Regarding `CC1=C[C@]23C(=O)[C@@H](C=C(CO)[C@@H](O)[C@]2(O)[C@H]1OC(=O)c1ncncc1Br)[C@H]1[C@@H](C[C@H]3C)C1(C)C` [Compound 523, Ingenol 3-(5-bromopyrimidine-4-carboxylate)], the EC50 in assay [1] is over 100 nM; with HeLa cells it was over 350000 nM; in assay [2], 20 to 100 nM.
Taken in the same sequence, the figures for `CCN(C(=O)O[C@H]1C(C)=C[C@]23C(=O)C(C=C(CO)[C@@H](O)[C@]12O)[C@H]1[C@@H](C[C@H]3C)C1(C)C)c1ccccc1` [Compound 734, Ingenol 3-(N-ethyl-N-phenyl-carbamate)] were under 20 nM, 150000 to 350000 nM and 20 to 100 nM.
Taken in the same sequence, the figures for `CC1=C[C@]23C(=O)[C@@H](C=C(CO)[C@@H](O)[C@]2(O)[C@H]1OC(=O)N(C)c1nc(C)cs1)[C@H]1[C@@H](C[C@H]3C)C1(C)C` [Compound 752, Ingenol 3-(N-methyl-N-(4-methylthiazol-2-yl)-carbamate)] were under 20 nM, 150000 to 350000 nM and under 20 nM.
Take `CC1=C[C@]23C(=O)[C@@H](C=C(CO)[C@@H](O)[C@]2(O)[C@H]1OC(=O)c1c(C)nn(C)c1C)[C@H]1[C@@H](C[C@H]3C)C1(C)C` [Compound 566, Ingenol 3-(1,3,5-trimethylpyrazole-4-carboxylate)]: the values for the EC50 (in assay [1]; with HeLa cells; in assay [2]) were 20 to 100 nM, over 350000 nM and 20 to 100 nM, respectively.
Take `CC1=C[C@]23C(=O)[C@@H](C=C(CO)[C@@H](O)[C@]2(O)[C@H]1OC(=O)c1[nH]ccc1C)[C@H]1[C@@H](C[C@H]3C)C1(C)C` [Compound 584, Ingenol 3-(3-methyl-1H-pyrrole-2-carboxylate)]: the EC50 in assay [1] is under 20 nM; with HeLa cells it was 150000 to 350000 nM; in assay [2], under 20 nM.
Turning to `CC1=C[C@]23C(=O)[C@@H](C=C(CO)[C@@H](O)[C@]2(O)[C@H]1OC(=O)c1c(C)n(C)c2ccccc12)[C@H]1[C@@H](C[C@H]3C)C1(C)C` [Compound 564, Ingenol 3-(1,2-dimethylindole-3-carboxylate)], the EC50 is under 20 nM in assay [1], under 150000 nM in the assay with HeLa cells and under 20 nM in assay [2].
As for `CC1=C[C@]23C(=O)[C@@H](C=C(CO)[C@@H](O)[C@]2(O)[C@H]1OC(=O)c1sccc1C)[C@H]1[C@@H](C[C@H]3C)C1(C)C` [Compound 537, Ingenol 3-(3-methylthiophene-2-carboxylate)], the EC50 was under 20 nM in assay [1], 150000 to 350000 nM with HeLa cells and under 20 nM in assay [2].
For the molecule `CC1=C[C@]23C(=O)[C@@H](C=C(CO)[C@@H](O)[C@]2(O)[C@H]1OC(=O)c1c(C)oc(C)c1C)[C@H]1[C@@H](C[C@H]3C)C1(C)C` [Compound 536, Ingenol 3-(2,4,5-trimethylfuran-3-carboxylate)], the EC50 is under 20 nM in assay [1], 150000 to 350000 nM with HeLa cells and under 20 nM in assay [2].
Take `CC1=C[C@]23C(=O)[C@@H](C=C(CO)[C@@H](O)[C@]2(O)[C@H]1OC(=O)N(C)c1ccc(Cl)cc1)[C@H]1[C@@H](C[C@H]3C)C1(C)C` [Compound 729, Ingenol 3-(N-(4-chloro-phenyl)-N-methyl-carbamate)]: the EC50 is under 20 nM in assay [1], 150000 to 350000 nM in the assay on HeLa cells and under 20 nM in assay [2].
Turning to `CC1=C[C@]23C(=O)[C@@H](C=C(CO)[C@@H](O)[C@]2(O)[C@H]1OC(=O)c1c(-c2ccccc2)cnn1C)[C@H]1[C@@H](C[C@H]3C)C1(C)C` [Compound 557, Ingenol 3-(2-methyl-4-phenyl-pyrazole-3-carboxylate)], the EC50 is under 20 nM in assay [1], under 150000 nM in the assay on HeLa cells and under 20 nM in assay [2].
Regarding `CC1=C[C@]23C(=O)[C@@H](C=C(CO)[C@@H](O)[C@]2(O)[C@H]1OC(=O)c1cc(C)nn1C(C)(C)C)[C@H]1[C@@H](C[C@H]3C)C1(C)C` [Compound 532, Ingenol 3-(2-tert-butyl-5-methyl-pyrazole-3-carboxylate)], the EC50 is under 20 nM in assay [1], under 150000 nM in the assay with HeLa cells and 20 to 100 nM in assay [2].
Taken in the same sequence, the figures for `CC1=C[C@]23C(=O)[C@@H](C=C(CO)[C@@H](O)[C@]2(O)[C@H]1OC(=O)c1c2c(nn1C)CCCC2)[C@H]1[C@@H](C[C@H]3C)C1(C)C` [Compound 563, Ingenol 3-(2-methyl-4,5,6,7-tetrahydroindazole-3-carboxylate)] were under 20 nM, under 150000 nM and under 20 nM.
Taken in the same sequence, the figures for `CC1=C[C@]23C(=O)[C@@H](C=C(CO)[C@@H](O)[C@]2(O)[C@H]1OC(=O)c1c2ccccc2nn1C)[C@H]1[C@@H](C[C@H]3C)C1(C)C` [Compound 548, Ingenol 3-(2-methylindazole-3-carboxylate)] were under 20 nM, 150000 to 350000 nM and 20 to 100 nM.
Taken in the same sequence, the figures for `CC1=C[C@]23C(=O)[C@@H](C=C(CO)[C@@H](O)[C@]2(O)[C@H]1OC(=O)N1CCc2ccccc21)[C@H]1[C@@H](C[C@H]3C)C1(C)C` [Compound 727, Ingenol 3-(indoline-1-carboxylate)] were under 20 nM, under 150000 nM and under 20 nM.
Consider `CC1=C[C@]23C(=O)[C@@H](C=C(CO)[C@@H](O)[C@]2(O)[C@H]1OC(=O)c1c(-c2ccc(S(C)(=O)=O)cc2)cnn1C)[C@H]1[C@@H](C[C@H]3C)C1(C)C` [Compound 556, Ingenol 3-(2-methyl-4-(4-methylsulfonylphenyl)pyrazole-3-carboxylate)], for which the EC50 in assay [1] is 20 to 100 nM; in the assay on HeLa cells it was 150000 to 350000 nM; in assay [2], 20 to 100 nM.
